Measurements published in patent US20230357179A1, “RAF KINASE INHIBITORS AND METHODS OF USE THEREOF” (Deciphera Pharmaceuticals, LLC, priority 2021, published 2023).

Test system: A375 cells
Assay: A375 cell proliferation assay (2), resazurin, 384-well
Format: cell-based
Details: Homo sapiens, A-375, inhibition of cell proliferation, 67-72 h
Method: A375 Cell Proliferation Assay (2)
A375 cells (catalog (#CRL-1619) are obtained from the American Type Culture Collect (ATTC, Manassas, VA). Briefly, cells were grown in DMEM High Glucose supplemented with 10% characterized fetal bovine serum (Invitrogen, Carlsbad, CA) and 1% Penicillin/Streptomycin/L-Glutamine at 37° C., 5% CO2, and 95% humidity. Cells are expanded until reaching 70-95% confluency at which point they are sub-cultured or harvested for assay use. Using the Beckman Coulter Echo 650, a serial dilution of test compound is dispensed into a 384-well black clear bottom plate in triplicate. Six hundred twenty-five cells are added per well in 50 μL complete growth medium in the 384-well plate. Plates are incubated for 67-72 h at 37° C., 5% CO2, and 95% humidity. At the end of the incubation, 10 μL of a 440 μM solution of resazurin (Sigma, St. Louis, MO) in PBS is added to each well of the plate and plates are incubated for an additional 3-6 h at 37° C., 5% CO2, and 95% humidity. Plates are read on a Synergy2 or equivalent reader (Biotek, Winooski VT) using an excitation of 540 nm and an emission of 600 nm. Data is analyzed using Prism software (GraphPad, San Diego, CA) to calculate IC50 values.

Structure (SMILES): Cc1ccc(NC(=O)N2CC[C@H](C(F)(F)F)C2)cc1-c1cncc(-c2cc(NC(=O)C3CC3)ncn2)c1 [Example 195]
- IC50: 100 to 500 nM

Structure (SMILES): Cc1cc(F)c(NC(=O)N2CC[C@H](C(F)(F)F)C2)cc1-c1cncc(-c2cc(NC(=O)C3CC3)ncn2)c1 [Example 216]
- IC50: 100 to 500 nM
